The subject of one experiment is PGE2. Briefly: PGE2 release by PMA-stimulated NHEK (ELISA). To be noted: for effect on PGE2 release, in words / % of relative inhibition of PGE2 release / PGE2 release, % of the control: PMA-stimulated keratinocytes; for effect on PGE2 release, in words: overall; for % of relative inhibition of PGE2 release: concentration not given; for PGE2 release, % of the control: highest concentration tested. The format is cell-based, human. The protocol:
(§1) Example 1: Effects of six compounds on normal human epidermal keratinocytes The effects on normal human epidermal keratinocytes (NHEK) were measured by assessing IL-8 and PGE2 release by PMA-stimulated NHEK using specific ELISA kits.
(§2) Keratinocytes were seeded in 96-well plates and cultured for 24 hours in culture medium. […] After pre-incubation, the medium was removed and replaced by assay medium 1 containing or not (stimulated control) the compounds or the reference compound and containing the inducer (PMA tested at 0.5 μg/ml). The cells were then incubated for 24 hours. In parallel, a non-stimulated control condition was performed.
(§3) All experimental conditions were performed in n=3. At the end of incubation, the culture supernatants were collected for IL-8 and PGE2 quantifications.
(§4) IL-8 and PGE2 released in the culture supernatants were measured using specific ELISA kits according to the supplier's instructions.
On the technique in general: An ELISA detects its analyte on a solid surface through an enzyme-linked reagent.

In another experiment the test system is IL-8. Briefly: cells. Format: cell-based, human. The following applies: for effect on IL-8 release, in words: PMA-stimulated keratinocytes; for % Relative inhibition of IL-8 release: PMA 0.5 μg/ml. The protocol:
as §1, §2, §3, §4

[1] abbreviates: Homo sapiens, NHEK, 24 h, read-out: % Relative inhibition of PGE2 release.
[2] abbreviates: Homo sapiens, NHEK, 24 h, read-out: % Relative inhibition of IL-8 release.
Where [3] appears, read: 1 μM, NHEK, PMA 0.5 μg/ml, 24 h.

Molecules are shown by their SMILES. Entries after “also recorded” stand apart in the source; their conditions may differ. Where two headings read alike, the source gives them in different places.

As to `O=C1O[C@H]([C@@H](O)CO)C(O)=C1O` [L-Ascorbic acid, reference compound], in the experiment on PGE2 (setting [1]), the inhibition at 50 µg/mL is over 148%, the inhibition at 100 µg/mL was over 160% and the inhibition at 200 µg/mL was 127%. In addition, in the experiment with PGE2, the “effect on PGE2 release, in words” value is “overall the same effect at all tested concentrations; also recorded: significantly limited PGE2 release” and the “% of relative inhibition of PGE2 release” value is about 145%. Also, in the experiment with IL-8 (setting [2]), the inhibition at 50 µg/mL is -10%, the inhibition at 100 µg/mL was determined as 11% and the inhibition at 200 µg/mL is -15%.

Regarding `C=C(C)[C@@H]1CCC(C)=C[C@H]1c1c(O)cc(CCCCC)cc1O` [CBD, cannabidiol], the inhibition at 0.1 µM in the experiment with PGE2 (Homo sapiens, 0.1 μM, NHEK, PMA 0.5 μg/ml, 24 h, read-out: % Relative inhibition of PGE2 release) amounted to 0%. Besides, the inhibition at 0.3 µM in the experiment with PGE2 (Homo sapiens, 0.3 μM, NHEK, PMA 0.5 μg/ml, 24 h, read-out: % Relative inhibition of PGE2 release) was -59%. Besides, in the experiment with PGE2, the “effect on PGE2 release, in words” value is “stimulate PGE2 expression” and the “PGE2 release, % of the control” value is reported as 185 % of the control. Besides, the “effect on IL-8 release, in words” value in the experiment with IL-8 (0.3 μM) was “overstimulated IL-8 release”. Besides, in the experiment on IL-8 (setting [2]), the inhibition at 0.1 µM stood at 12%, the inhibition at 0.3 µM is -44% and the inhibition at 1 µM is 18%.

Regarding `CCCCCc1cc(O)c(C/C=C(\C)CCC=C(C)C)c(O)c1C(=O)O` [CBGA, cannabigerolic acid], in the experiment on PGE2 (setting [1]), the inhibition at 0.03 µM was -17% and the inhibition at 0.1 µM is -68%. Also, in the experiment on PGE2, the “effect on PGE2 release, in words” value was “stimulate PGE2 expression” and the “PGE2 release, % of the control” value is recorded as 182 % of the control. Besides, in the experiment with IL-8 (setting [2]), the inhibition at 0.03 µM turned out to be 0%, the inhibition at 0.1 µM was -7% and the inhibition at 0.3 µM turned out to be 9%.

`CCCCCc1cc(O)c(C/C=C(\C)CCC=C(C)C)c(O)c1` [CBG, cannabigerol]: in the experiment on PGE2 (setting [1]), the inhibition at 0.3 µM stood at 86%, the inhibition at 1 µM was over 169% and the inhibition at 3 µM was over 159%. In the experiment on PGE2, the “effect on PGE2 release, in words” value was “significant at all tested concentrations; also recorded: significantly inhibited” and the “% of relative inhibition of PGE2 release” value was “about 160%”. For the same molecule, in the experiment with IL-8 (3 μM), the “effect on IL-8 release, in words” value is given as “strongly inhibited”. Moreover, in the experiment with IL-8 (setting [2]), the inhibition at 0.3 µM is 7%, the inhibition at 1 µM was determined as 20% and the inhibition at 3 µM is 60%. Moreover, the “effect on IL-8 release, in words” value in the experiment with IL-8 (overall) is recorded as “significantly inhibited”.

For the molecule `COc1ccc2c(c1)c(CC(=O)O)c(C)n2C(=O)c1ccc(Cl)cc1` [Indomethacin, indomethacin, reference compound], the “% Relative inhibition of PGE2 release” value in the experiment with PGE2 (setting [3]) is reported as over 169%. In addition, in the experiment with PGE2 (setting [1]), the inhibition at 1 µM is over 169%.

In the case of `C=C(C)[C@@H]1CCC(C)=C[C@H]1c1c(O)cc(CCCCC)c(C(=O)O)c1O` [CBDA, cannabidiolic acid], in the experiment on PGE2 (setting [1]), the inhibition at 0.03 µM is -24%, the inhibition at 0.1 µM was -50% and the inhibition at 0.3 µM is -20%. For the same molecule, the “effect on PGE2 release, in words” value in the experiment on PGE2 was “did not modulate PGE2 release”. Also, in the experiment on IL-8 (setting [2]), the inhibition at 0.03 µM amounted to 11%, the inhibition at 0.1 µM is 17% and the inhibition at 0.3 µM was 0%.

In the case of `CCCc1cc(O)c(C/C=C(\C)CCC=C(C)C)c(O)c1C(=O)O` [CBGVA, cannabigerovarinic acid], the “% Relative inhibition of PGE2 release” value was 19% in the experiment with PGE2 (0.1 μM, NHEK, PMA 0.5 μg/ml, 24 h); 65% with PGE2 (0.3 μM, NHEK, PMA 0.5 μg/ml, 24 h); over 162% in the experiment on PGE2 (setting [3]). In addition, in the experiment on PGE2, the “effect on PGE2 release, in words” value was “significant effect only when tested at the highest concentration; also recorded: inhibited PGE2 release”. Further, the “% of relative inhibition of PGE2 release” value in the experiment on PGE2 was “about 160%”. Moreover, the “% Relative inhibition of IL-8 release” value in the experiment on IL-8 (0.1 μM, NHEK, 24 h) is recorded as 2%; with IL-8 (0.3 μM, NHEK, 24 h) it was 11%; in the experiment with IL-8 (1 μM, NHEK, 24 h), 9%.

For orientation: inhibition means the drop in the measured response relative to a control, in per cent.

The record behind these values is patent publication US20220347247A1, “USE OF CANNABINOIDS IN THE TREATMENT OF INFLAMMATION AND AGING IN THE SKIN” (priority 2021, published 2022).
